This experiment has as its system MV-4-11 cells. The experiment can be described thus: Gene expression microarray analysis (Affymetrix PrimeView) and GSEA. In kind it is cell-based, human. Also on record: RFU PODN (11730768_x_at) / Fold change /veh PODN (11730768_x_at) / RFU LINC00158 (11744669_a_at) / Fold change /veh LINC00158 (11744669_a_at) / RFU DUSP10 (11751237_a_at) / Fold change /veh DUSP10 (11751237_a_at) / RFU ID3 (11757404_x_at) / Fold change /veh ID3 (11757404_x_at) / RFU PLEKHG5 (11737974_s_at) / Fold change /veh PLEKHG5 (11737974_s_at) / RFU LRRC4B (11730491_at) / Fold change /veh LRRC4B (11730491_at) / RFU GIMAP4 (11747438_a_at) / Fold change /veh GIMAP4 (11747438_a_at) / RFU KRT8 (11758183_x_at) / Fold change /veh KRT8 (11758183_x_at) / RFU CNN1 (11734310_a_at) / Fold change /veh CNN1 (11734310_a_at) / RFU VPS37D (11726825_at) / Fold change /veh VPS37D (11726825_at) / RFU C10orf10 (11716522_x_at) / Fold change /veh C10orf10 (11716522_x_at) / RFU KIR2DL2 /// KIR2DL4 /// KIR2DL5A /// KIR2DL5B /// KIR2DS1 /// KIR2DS2 /// KIR2DS3 /// KIR2DS4 /// KIR3DL3 /// KIR3DL3 /// KIR3DS1 (11738374_at) / Fold change /veh KIR2DL2 /// KIR2DL4 /// KIR2DL5A /// KIR2DL5B /// KIR2DS1 /// KIR2DS2 /// KIR2DS3 /// KIR2DS4 /// KIR3DL3 /// KIR3DL3 /// KIR3DS1 (11738374_at) / RFU C1QL1 (11718748_at) / Fold change /veh C1QL1 (11718748_at) / RFU TMPRSS4 (11747572_a_at) / Fold change /veh TMPRSS4 (11747572_a_at) / RFU HAMP (11756126_x_at) / Fold change /veh HAMP (11756126_x_at) / RFU RNFT2 (11725882_a_at) / Fold change /veh RNFT2 (11725882_a_at) / RFU NR4A2 (11747474_a_at) / Fold change /veh NR4A2 (11747474_a_at) / RFU ABCC12 (11746883_a_at) / Fold change /veh ABCC12 (11746883_a_at) / RFU TMEM136 (11760407_x_at) / Fold change /veh TMEM136 (11760407_x_at) / RFU CLDN22 /// WWC2 (11732394_at) / Fold change /veh CLDN22 /// WWC2 (11732394_at) / RFU HLA-DPB1 (11760878_x_at) / Fold change /veh HLA-DPB1 (11760878_x_at) / RFU SPINT1 (11716480_a_at) / Fold change /veh SPINT1 (11716480_a_at) / RFU GAP43 (11754022_s_at) / Fold change /veh GAP43 (11754022_s_at) / RFU A4GNT (11735810_at) / Fold change /veh A4GNT (11735810_at) / RFU PRB3 (11715151_x_at) / Fold change /veh PRB3 (11715151_x_at) / RFU TUBB4B (11761932_at) / Fold change /veh TUBB4B (11761932_at) / RFU CAPN14 (11732068_a_at) / Fold change /veh CAPN14 (11732068_a_at) / RFU TMCC2 (11721928_a_at) / Fold change /veh TMCC2 (11721928_a_at) / RFU IRGQ (11745062_a_at) / Fold change /veh IRGQ (11745062_a_at) / RFU FAM174B (11720279_a_at) / Fold change /veh FAM174B (11720279_a_at) / RFU TMPRSS4 (11748680_a_at) / Fold change /veh TMPRSS4 (11748680_a_at) / RFU FAM212B (11763350_a_at) / Fold change /veh FAM212B (11763350_a_at) / RFU PLEKHG5 (11743358_a_at) / Fold change /veh PLEKHG5 (11743358_a_at) / RFU ZSCAN30 (11745921_a_at) / Fold change /veh ZSCAN30 (11745921_a_at) / RFU CMKLR1 (11741424_a_at) / Fold change /veh CMKLR1 (11741424_a_at) / RFU LOC101060620 /// MAPK8IP1 (11723275_at) / Fold change /veh LOC101060620 /// MAPK8IP1 (11723275_at) / RFU SPTSSB (11747773_x_at) / Fold change /veh SPTSSB (11747773_x_at) / RFU PRSS12 (11739890_at) / Fold change /veh PRSS12 (11739890_at) / RFU BIN1 (11741810_x_at) / Fold change /veh BIN1 (11741810_x_at) / RFU WNT11 (11732464_a_at) / Fold change /veh WNT11 (11732464_a_at) / RFU C10orf10 (11716521_a_at) / Fold change /veh C10orf10 (11716521_a_at) / RFU C5orf56 (11738089_at) / Fold change /veh C5orf56 (11738089_at) / RFU CYB561 (11721691_x_at) / Fold change /veh CYB561 (11721691_x_at) / RFU ANKRD19P (11752326_a_at) / Fold change /veh ANKRD19P (11752326_a_at) / RFU OR2T12 /// OR2T33 /// OR2T8 (11738714_s_at) / Fold change /veh OR2T12 /// OR2T33 /// OR2T8 (11738714_s_at) / RFU VCAN (11748164_a_at) / Fold change /veh VCAN (11748164_a_at) / RFU JSRP1 (11732532_at) / Fold change /veh JSRP1 (11732532_at) / RFU KRTAP10-11 (11738290_x_at) / Fold change /veh KRTAP10-11 (11738290_x_at) / RFU MYO3A (11730013_a_at) / Fold change /veh MYO3A (11730013_a_at) / RFU EBF3 (11725865_a_at) / Fold change /veh EBF3 (11725865_a_at) / RFU CAMK2N1 (11719241_x_at) / Fold change /veh CAMK2N1 (11719241_x_at) / RFU C5orf56 (11738088_a_at) / Fold change /veh C5orf56 (11738088_a_at) / RFU OLFML3 (11715873_a_at) / Fold change /veh OLFML3 (11715873_a_at) / RFU LOC100653217 /// NTM (11731650_a_at) / Fold change /veh LOC100653217 /// NTM (11731650_a_at) / RFU MAPK11 (11762145_a_at) / Fold change /veh MAPK11 (11762145_a_at) / RFU FIZ1 (11724087_x_at) / Fold change /veh FIZ1 (11724087_x_at) / RFU OASL (11726364_x_at) / Fold change /veh OASL (11726364_x_at) / RFU SOX15 (11748057_x_at) / Fold change /veh SOX15 (11748057_x_at) / RFU CD79A (11719716_a_at) / Fold change /veh CD79A (11719716_a_at) / RFU HIST1H1D (11736915_at) / Fold change /veh HIST1H1D (11736915_at) / RFU CASKIN2 (11723855_a_at) / Fold change /veh CASKIN2 (11723855_a_at) / RFU LOC730098 (11760151_x_at) / Fold change /veh LOC730098 (11760151_x_at) / RFU OR4N2 (11742367_at) / Fold change /veh OR4N2 (11742367_at) / RFU PRRT2 (11749266_a_at) / Fold change /veh PRRT2 (11749266_a_at) / RFU SNX32 (11753110_a_at) / Fold change /veh SNX32 (11753110_a_at) / RFU CDHR5 (11726645_a_at) / Fold change /veh CDHR5 (11726645_a_at) / RFU RCAN1 (11760418_a_at) / Fold change /veh RCAN1 (11760418_a_at) / RFU FAM167A (11723789_a_at) / Fold change /veh FAM167A (11723789_a_at) / RFU FAM26E (11764081_at) / Fold change /veh FAM26E (11764081_at) / RFU ISYNA1 (11749810_s_at) / Fold change /veh ISYNA1 (11749810_s_at) / RFU ACY1 (11761880_at) / Fold change /veh ACY1 (11761880_at) / RFU 11764098_at / Fold change /veh 11764098_at / RFU SAMD14 (11745864_x_at) / Fold change /veh SAMD14 (11745864_x_at) / RFU NPB (11741838_a_at) / Fold change /veh NPB (11741838_a_at) / RFU TMPRSS6 (11731388_a_at) / Fold change /veh TMPRSS6 (11731388_a_at) / RFU KRTAP10-2 (11738614_at) / Fold change /veh KRTAP10-2 (11738614_at) / RFU ARHGAP8 /// PRR5-ARHGAP8 (11727945_x_at) / Fold change /veh ARHGAP8 /// PRR5-ARHGAP8 (11727945_x_at) / RFU KRTAP5-7 /// NADSYN1 (11734609_at) / Fold change /veh KRTAP5-7 /// NADSYN1 (11734609_at) / RFU RASL12 (11751679_a_at) / Fold change /veh RASL12 (11751679_a_at) / RFU CDKN2B (11736163_a_at) / Fold change /veh CDKN2B (11736163_a_at) / RFU PRF1 (11729649_at) / Fold change /veh PRF1 (11729649_at) / RFU, ZNF638 /// ZNF638-IT1 / Fold change vs veh, ZNF638 /// ZNF638-IT1 / RFU, PANK3 / Fold change vs veh, PANK3 / RFU, SH3YL1 / Fold change vs veh, SH3YL1 / RFU, ZEB2 / Fold change vs veh, ZEB2 / RFU, NRIP1 / Fold change vs veh, NRIP1 / RFU, PTTG1IP / Fold change vs veh, PTTG1IP / RFU, CAPN2 / Fold change vs veh, CAPN2 / RFU, MED14 / Fold change vs veh, MED14 / RFU, SNORA58 / Fold change vs veh, SNORA58 / RFU, C1orf63 / Fold change vs veh, C1orf63 / RFU, LRRFIP1 / Fold change vs veh, LRRFIP1 / RFU, NDUFAF7 / Fold change vs veh, NDUFAF7 / RFU, SLC12A2 / Fold change vs veh, SLC12A2 / RFU, IBTK / Fold change vs veh, IBTK / RFU, ESF1 / Fold change vs veh, ESF1 / Fold change vs veh, TMEM50B / RFU, TAOK1 / Fold change vs veh, TAOK1 / RFU, ACBD3 / Fold change vs veh, ACBD3 / RFU, TMA16 / Fold change vs veh, TMA16 / RFU, RWDD3 / Fold change vs veh, RWDD3 / RFU, BCAT1 / Fold change vs veh, BCAT1 / RFU, EDEM3 / Fold change vs veh, EDEM3 / RFU, TMEM33 / Fold change vs veh, TMEM33 / RFU, WDR75 / Fold change vs veh, WDR75 / RFU, AHCTF1 / Fold change vs veh, AHCTF1 / RFU, TFRC / Fold change vs veh, TFRC / RFU, ZDHHC17 / Fold change vs veh, ZDHHC17 / RFU, NOM1 / Fold change vs veh, NOM1 / RFU, ARL8B / Fold change vs veh, ARL8B / RFU, ZBTB11 / Fold change vs veh, ZBTB11 / RFU, TAMM41 / Fold change vs veh, TAMM41 / RFU, KIAA1704 /// LOC100996395 / Fold change vs veh, KIAA1704 /// LOC100996395 / RFU, ING1 / Fold change vs veh, ING1 / RFU, TRMT61B / Fold change vs veh, TRMT61B / RFU, FUBP3 / Fold change vs veh, FUBP3 / RFU, TP53 / Fold change vs veh, TP53 / RFU, TNKS2 / Fold change vs veh, TNKS2 / RFU, ZFP14 / Fold change vs veh, ZFP14 / RFU, ACTR2 / Fold change vs veh, ACTR2 / RFU, PPP3R1 / Fold change vs veh, PPP3R1 / RFU, PIK3R1 / Fold change vs veh, PIK3R1 / RFU, HNRNPA1 / Fold change vs veh, HNRNPA1 / RFU, RNF170 / Fold change vs veh, RNF170 / RFU, ZNF28 / Fold change vs veh, ZNF28 / RFU, RNGTT / Fold change vs veh, RNGTT / RFU, OGT / Fold change vs veh, OGT / RFU, BRD1 / Fold change vs veh, BRD1 / RFU, MARS / Fold change vs veh, MARS / RFU, ZNF655 / Fold change vs veh, ZNF655 / RFU, FAHD1 / Fold change vs veh, FAHD1 / RFU, BDP1 / Fold change vs veh, BDP1 / RFU, LRRCC1 / Fold change vs veh, LRRCC1 / RFU, ARID1A / Fold change vs veh, ARID1A / RFU, ZNF146 / Fold change vs veh, ZNF146 / RFU, ZNF330 / Fold change vs veh, ZNF330 / RFU, GPN3 / Fold change vs veh, GPN3 / RFU, C9orf123 / Fold change vs veh, C9orf123 / RFU, N4BP2L2 / Fold change vs veh, N4BP2L2 / RFU, ARFIP1 / Fold change vs veh, ARFIP1 / RFU, FAM179B / Fold change vs veh, FAM179B / RFU, BCL10 / Fold change vs veh, BCL10 / RFU, UHRF1BP1L / Fold change vs veh, UHRF1BP1L / RFU, BET1 / Fold change vs veh, BET1 / RFU, CNOT2 / Fold change vs veh, CNOT2 / RFU, ZNF268 / Fold change vs veh, ZNF268 / Fold change vs veh, ZNF507 / RFU, DGCR2 / Fold change vs veh, DGCR2 / RFU, WDSUB1 / Fold change vs veh, WDSUB1 / Fold change vs veh, HSP90B1 /// MIR3652 / RFU, ADSS / Fold change vs veh, ADSS / RFU, GK / Fold change vs veh, GK / RFU, ZNF148 / Fold change vs veh, ZNF148 / RFU, TAF9 / Fold change vs veh, TAF9 / RFU, SLC1A5 / Fold change vs veh, SLC1A5 / RFU, SLMO2 / Fold change vs veh, SLMO2 / RFU, ABCC4 / Fold change vs veh, ABCC4 / RFU, LOC101060439 /// RAP1B / Fold change vs veh, LOC101060439 /// RAP1B / RFU, RFX7 / Fold change vs veh, RFX7 / RFU, GTPBP10 / Fold change vs veh, GTPBP10 / RFU, CNEP1R1 / Fold change vs veh, CNEP1R1 / RFU, BIVM-ERCC5 /// ERCC5 / Fold change vs veh, BIVM-ERCC5 /// ERCC5 / RFU, ILF3 / Fold change vs veh, ILF3 / RFU 11762660_at / Fold change /veh 11762660_at / RFU VCAN (11757783_s_at) / Fold change /veh VCAN (11757783_s_at) / RFU DDX43 (11728927_at) / Fold change /veh DDX43 (11728927_at) / RFU KRT8 (11758188_x_at) / Fold change /veh KRT8 (11758188_x_at) / RFU NKD1 (11759106_at) / Fold change /veh NKD1 (11759106_at) / RFU SRD5A1 (11742802_a_at) / Fold change /veh SRD5A1 (11742802_a_at) / RFU TPSAB1 /// TPSB2 (11721975_s_at) / Fold change /veh TPSAB1 /// TPSB2 (11721975_s_at) / RFU GSTM3 (11746129_a_at) / Fold change /veh GSTM3 (11746129_a_at) / RFU IL23R (11737362_x_at) / Fold change /veh IL23R (11737362_x_at) / RFU TMEM51 (11727254_a_at) / Fold change /veh TMEM51 (11727254_a_at) / RFU PIWIL2 (11732686_x_at) / Fold change /veh PIWIL2 (11732686_x_at) / RFU ORM1 (11744905_x_at) / Fold change /veh ORM1 (11744905_x_at) / RFU CCDC152 (11743942_at) / Fold change /veh CCDC152 (11743942_at) / RFU ECM1 (11717891_a_at) / Fold change /veh ECM1 (11717891_a_at) / RFU IL23R (11748794_a_at) / Fold change /veh IL23R (11748794_a_at) / RFU TNFAIP8L3 (11732012_x_at) / Fold change /veh TNFAIP8L3 (11732012_x_at) / RFU MBOAT4 (11741988_at) / Fold change /veh MBOAT4 (11741988_at) / RFU 11764193_at / Fold change /veh 11764193_at / RFU TMEM53 (11763286_at) / Fold change /veh TMEM53 (11763286_at) / RFU MAGEB2 (11727129_at) / Fold change /veh MAGEB2 (11727129_at) / RFU TMEM200A (11744735_a_at) / Fold change /veh TMEM200A (11744735_a_at) / RFU CCDC152 (11751479_a_at) / Fold change /veh CCDC152 (11751479_a_at) / RFU FAM211A (11726209_a_at) / Fold change /veh FAM211A (11726209_a_at) / RFU RGS16 (11746705_a_at) / Fold change /veh RGS16 (11746705_a_at) / RFU VCAN (11755009_s_at) / Fold change /veh VCAN (11755009_s_at) / RFU RHOB (11743442_s_at) / Fold change /veh RHOB (11743442_s_at) / RFU RGS16 (11720943_a_at) / Fold change /veh RGS16 (11720943_a_at) / RFU RGS16 (11720944_at) / Fold change /veh RGS16 (11720944_at) / RFU, VPS4B / Fold change vs veh, VPS4B / RFU, CREB1 / Fold change vs veh, CREB1 / RFU, DNAJC13 / Fold change vs veh, DNAJC13 / RFU, GNAQ / Fold change vs veh, GNAQ / RFU, CDK5R1 / Fold change vs veh, CDK5R1 / RFU, ZRANB3 / Fold change vs veh, ZRANB3 / RFU, CUL4A / Fold change vs veh, CUL4A / RFU, CCNY / Fold change vs veh, CCNY / RFU, UFL1 / Fold change vs veh, UFL1 / RFU, COG3 / Fold change vs veh, COG3 / RFU, DIAPH2 / Fold change vs veh, DIAPH2 / RFU, SKA2 / Fold change vs veh, SKA2 / RFU, AFF3 / Fold change vs veh, AFF3 / RFU, LMF1 / Fold change vs veh, LMF1 / RFU, IPO11 / Fold change vs veh, IPO11 / RFU, DFFB / Fold change vs veh, DFFB / RFU, FOXP1 / Fold change vs veh, FOXP1 / RFU, CARD8 / Fold change vs veh, CARD8 / RFU, STRN3 / Fold change vs veh, STRN3 / RFU, ADK / Fold change vs veh, ADK / RFU, RASSF2 / Fold change vs veh, RASSF2 / RFU, WIPF1 / Fold change vs veh, WIPF1 / RFU, LARP1B / Fold change vs veh, LARP1B / RFU, RASA1 / Fold change vs veh, RASA1 / RFU, RB1 / Fold change vs veh, RB1 / RFU, PPFIA1 / Fold change vs veh, PPFIA1 / RFU, MAT2A / Fold change vs veh, MAT2A / RFU, CCT5 / Fold change vs veh, CCT5 / RFU, WDR92 / Fold change vs veh, WDR92 / RFU, CUX1 / Fold change vs veh, CUX1 / RFU, TTC7A / Fold change vs veh, TTC7A / RFU, TMEM135 / Fold change vs veh, TMEM135 / RFU, DEPTOR / Fold change vs veh, DEPTOR / RFU, CPM / Fold change vs veh, CPM / RFU, DNAJB6 / Fold change vs veh, DNAJB6 / RFU, CACNA2D3 / Fold change vs veh, CACNA2D3 / RFU, DTX4 / Fold change vs veh, DTX4 / RFU, TFCP2 / Fold change vs veh, TFCP2 / RFU, GMCL1 /// GMCL1P1 / Fold change vs veh, GMCL1 /// GMCL1P1 / RFU, AEBP2 / Fold change vs veh, AEBP2 / RFU, SNHG1 /// SNORD22 /// SNORD25 /// SNORD26 /// SNORD27 /// SNORD28 /// SNORD29 /// SNORD31 / Fold change vs veh, SNHG1 /// SNORD22 /// SNORD25 /// SNORD26 /// SNORD27 /// SNORD28 /// SNORD29 /// SNORD31 / Fold change (Aza/veh), C12orf56 (ProbeSet 11735607_a_at) / Fold change (ACY-1035/veh), C12orf56 (ProbeSet 11735607_a_at) / Fold change (Aza/veh), FGFR1OP (ProbeSet 11751329_s_at) / Fold change (ACY-1035/veh), FGFR1OP (ProbeSet 11751329_s_at) / Fold change (Aza/veh), VPS36 (ProbeSet 11739960_a_at) / Fold change (ACY-1035/veh), VPS36 (ProbeSet 11739960_a_at) / RFU SYPL1 (11715823_x_at) / Fold change /veh SYPL1 (11715823_x_at) / RFU IGFBP7 (11715501_s_at) / Fold change /veh IGFBP7 (11715501_s_at) / RFU REEP3 (11722064_at) / Fold change /veh REEP3 (11722064_at) / RFU IGLL1 (11728026_x_at) / Fold change /veh IGLL1 (11728026_x_at): dose or concentration left out as unconfirmed. The following applies: ProbeSet 11723944_a_at; LIST B.

Consider `Nc1ncn([C@@H]2O[C@H](CO)[C@@H](O)[C@H]2O)c(=O)n1` [azacitidine], for which the “Fold change vs veh, PTTG1IP” value was 0.86.

The values above are taken from article PMC5218480 (PLoS ONE, 2017).
